Earlier results as cited in patent US8679533B2, “Pramipexole once-daily dosage form” (Pharmacia Corporation, priority 2002, dated 2014).

Conditions: dihydrochloride salt, 20-25° C.

solubility in water: about 200 mg/ml
Compound: CCCN[C@H]1CCc2nc(N)sc2C1 [pramipexole, (S)-2-amino-4,5,6,7-tetrahydro-6-(propylamino)-benzothiazole]
